The values that follow come from publication PMC8318231, “Rate-of-Kill (RoK) assays to triage large compound sets for Chagas disease drug discovery: Application to GSK Chagas Box” (PLoS Neglected Tropical Diseases, 2021).

Each structure is given as a SMILES string. A value given as a limit tells only on which side of the number the result lay.

The test system of assay [1] is TcCYP51. Conditions: formerly reported; cited from earlier work.
In assay [2] the test system is T. cruzi Tulahuen trypomastigotes. As to the kind of experiment: T. cruzi trypomastigote assay (Cell Titer-Glo viability, ATP luminescence). The following applies: for Trypomastigotes pIC50 48 hours: 48 hours incubation; for Trypomastigotes pIC50 48 hours / Trypomastigotes pIC50 72 hours: pIC50 = -log10 IC50 in molar units; for Trypomastigotes pIC50 72 hours: 72 hours incubation; for 48 pIC50 / 72 pIC50: trypomastigote assay; for 48 pIC50: 48 h; for 72 pIC50: 72 h. The class given is cell-based, Trypanosoma cruzi. As for the experimental part: T. cruzi Tulahuen trypomastigotes obtained from the supernatants of LLC-MK2 infected cultures in a 225 cm^2 T-Flasks harvested between days 5 and 8 of infection. Trypomastigotes (5 × 10^4 per well) in 50 μl of DMEM/ 2% FBS were dispensed into white 384 plates (Greiner) pre-stamped with 250 nl compound a single-shot final concentration of 5 μM, or in dose response. […] Cell Titer-Glo cell viability solution (Promega) was added to each well (50 μL) incubated at room temperature for 10 min and luminescence read by Envision plate reader (Perkin Elmer). This assay quantifies the amount of ATP present which is directly proportional to the number of metabolically active cells. All data were normalised (100% effect control for no cells and 0% effect control for DMSO). This assay was adapted from MacLean et al., 2018 [22].

As for `O=C(Nc1cccc(Cl)c1)N1CCCCC1c1cccnc1` (centres unmarked) [TCMDC-143529], the “CYP51 pIC50” value in assay [1] is 7.7. In addition, in assay [2], the “Trypomastigotes pIC50 48 hours” value is given as under 4.3 and the “Trypomastigotes pIC50 72 hours” value is on record as under 4.3. Also, in assay [2] (figure 1A), the “48 pIC50” value is under 4.3 and the “72 pIC50” value is under 4.3. Moreover, in assay [2] (figure 1B), the “72 pIC50” value is under 4.3.
In the case of `Cc1nc(N2CCC(C(=O)N3CCC(O)(c4cccnc4)CC3)CC2)nc2ccc(C(C)C)cc12` [TCMDC-143333], in assay [1], the “CYP51 pIC50” value is on record as 6.9. Moreover, in assay [2], the “Trypomastigotes pIC50 48 hours” value was 4.5 and the “Trypomastigotes pIC50 72 hours” value was found to be 4.4.
With `Cn1nc([N+](=O)[O-])nc1Oc1ccc(C(=O)c2ccccc2)cc1` [TCMDC-143126], the “CYP51 pIC50” value in assay [1] is listed as under 4. Further, in assay [2], the “Trypomastigotes pIC50 48 hours” value was found to be 6 and the “Trypomastigotes pIC50 72 hours” value stood at 6.1.
For `Cl.Clc1ccc(C(CC2CCCCO2)Cn2cncn2)c(Cl)c1` (centres unmarked) [TCMDC-143082], the “CYP51 pIC50” value in assay [1] is given as 6.6. Besides, in assay [2], the “Trypomastigotes pIC50 48 hours” value is under 4.3 and the “Trypomastigotes pIC50 72 hours” value was under 4.3. Further, in assay [2] (figure 1A), the “48 pIC50” value is recorded as under 4.3 and the “72 pIC50” value is under 4.3. In addition, the “72 pIC50” value in assay [2] (figure 1B) was under 4.3.
On to `CC(Cn1ccnc1)NC(=O)C1CC1c1cccc(Cl)c1Cl` (centres unmarked) [TCMDC-143506], for which the “CYP51 pIC50” value in assay [1] was 6.9. Further, in assay [2], the “Trypomastigotes pIC50 48 hours” value is reported as under 4.3 and the “Trypomastigotes pIC50 72 hours” value is under 4.3. Also, in assay [2] (figure 1A), the “48 pIC50” value is under 4.3 and the “72 pIC50” value was under 4.3. In assay [2] (figure 1B), the “72 pIC50” value is recorded as under 4.3.
For the compound `CCN(CC)S(=O)(=O)c1ccc(Cn2nc(C(=O)Nc3ccncn3)c3ccccc32)cc1` [TCMDC-143288], the “CYP51 pIC50” value in assay [1] is reported as 6.8. In assay [2], the “Trypomastigotes pIC50 48 hours” value was under 4.3 and the “Trypomastigotes pIC50 72 hours” value is reported as under 4.3. Besides, in assay [2] (figure 1A), the “48 pIC50” value is on record as under 4.3 and the “72 pIC50” value was under 4.3. Also, the “72 pIC50” value in assay [2] (figure 1B) is listed as under 4.3.
As for `O=[N+]([O-])c1cccc(Nc2cncc(-c3ccccc3CO)c2)c1` [TCMDC-143559], the “CYP51 pIC50” value in assay [1] is on record as 5.5. For the same compound, in assay [2], the “Trypomastigotes pIC50 48 hours” value is under 4.3 and the “Trypomastigotes pIC50 72 hours” value is under 4.3. Moreover, in assay [2] (figure 1A), the “48 pIC50” value was under 4.3 and the “72 pIC50” value is listed as under 4.3. Further, in assay [2] (figure 1B), the “72 pIC50” value is listed as under 4.3.
As for `COc1ccc(-c2ccc3nnc(-c4ccc(O)c(OC)c4)n3c2)cn1` [TCMDC-143413], the “CYP51 pIC50” value in assay [1] is recorded as under 4. In addition, in assay [2], the “Trypomastigotes pIC50 48 hours” value is listed as under 4.3 and the “Trypomastigotes pIC50 72 hours” value is under 4.3. In assay [2] (figure 1A), the “48 pIC50” value is given as under 4.3 and the “72 pIC50” value was under 4.3. Also, the “72 pIC50” value in assay [2] (figure 1B) was under 4.3.
On to `O=C(Cn1cnc([N+](=O)[O-])n1)Nc1ccc(Cl)cc1C(=O)c1ccccc1` [TCMDC-143616], for which the “CYP51 pIC50” value in assay [1] is 5. For the same compound, in assay [2], the “Trypomastigotes pIC50 48 hours” value came to 6 and the “Trypomastigotes pIC50 72 hours” value was found to be 6. In addition, in assay [2] (figure 1A), the “48 pIC50” value is 6 and the “72 pIC50” value is on record as 6. Besides, the “72 pIC50” value in assay [2] (figure 1B) was 6.
For the compound `CNc1cncc(C2CCCN2C(=O)Cc2coc3cc(C)ccc23)n1` (centres unmarked) [TCMDC-143464], the “CYP51 pIC50” value in assay [1] is on record as 7.6. Also, in assay [2], the “Trypomastigotes pIC50 48 hours” value is given as under 4.3 and the “Trypomastigotes pIC50 72 hours” value is recorded as under 4.3. For the same compound, in assay [2] (figure 1A), the “48 pIC50” value is under 4.3 and the “72 pIC50” value is under 4.3. In addition, the “72 pIC50” value in assay [2] (figure 1B) is given as under 4.3.
As to `Cc1ccc(S(=O)(=O)Cn2nnnc2C(c2cccnc2)N2CCN(c3ccccc3)CC2)cc1` (centres unmarked) [TCMDC-143539], the “CYP51 pIC50” value in assay [1] was 6.7. Besides, in assay [2], the “Trypomastigotes pIC50 48 hours” value is reported as under 4.3 and the “Trypomastigotes pIC50 72 hours” value was under 4.3. In assay [2] (figure 1A), the “48 pIC50” value is recorded as under 4.3 and the “72 pIC50” value was under 4.3. Moreover, the “72 pIC50” value in assay [2] (figure 1B) is listed as under 4.3.
`CN(Cc1cc2ccccc2s1)c1ncc2c(N)nc(N)nc2n1` [TCMDC-143232]: the “CYP51 pIC50” value in assay [1] is recorded as under 4. Also, in assay [2], the “Trypomastigotes pIC50 48 hours” value is 5.3 and the “Trypomastigotes pIC50 72 hours” value is on record as 5.5.
`Cc1cc2ncn(-c3ccc([N+](=O)[O-])cc3C#N)c2cc1C` [TCMDC-143546]: the “CYP51 pIC50” value in assay [1] is under 4. Moreover, in assay [2], the “Trypomastigotes pIC50 48 hours” value came out at 5.7 and the “Trypomastigotes pIC50 72 hours” value came to 5.9.
With `N#Cc1cccc(CN2CCC(N(Cc3cccnc3)C(=O)c3cc(F)c(F)cc3F)CC2)c1` [TCMDC-143178], the “CYP51 pIC50” value in assay [1] is 7.3. Further, in assay [2], the “Trypomastigotes pIC50 48 hours” value is given as under 4.3 and the “Trypomastigotes pIC50 72 hours” value is under 4.3. Also, in assay [2] (figure 1A), the “48 pIC50” value is listed as under 4.3 and the “72 pIC50” value is given as under 4.3. Also, in assay [2] (figure 1B), the “72 pIC50” value is on record as under 4.3.
In the case of `Cl.Cl.NC(=O)c1ccc(-c2cccc(OCCN3CCN(C4CCCCC4)CC3)c2)cc1` [TCMDC-143598], the “CYP51 pIC50” value in assay [1] is listed as 4.4. Besides, in assay [2], the “Trypomastigotes pIC50 48 hours” value is under 4.3 and the “Trypomastigotes pIC50 72 hours” value is given as under 4.3. Further, in assay [2] (figure 1A), the “48 pIC50” value is recorded as under 4.3 and the “72 pIC50” value was under 4.3. Also, the “72 pIC50” value in assay [2] (figure 1B) was under 4.3.
For `Clc1ccc(OCCN2CCCCC2c2cccnc2)c(Cl)c1` (centres unmarked) [TCMDC-143235], in assay [1], the “CYP51 pIC50” value is recorded as 7.2. Further, in assay [2], the “Trypomastigotes pIC50 48 hours” value was determined as 4.4 and the “Trypomastigotes pIC50 72 hours” value is 4.4. In assay [2] (figure 1A), the “48 pIC50” value is reported as 4.4 and the “72 pIC50” value is on record as 4.4. Further, in assay [2] (figure 1B), the “72 pIC50” value is reported as 4.4.
As for `CN(Cc1nc2ccccc2s1)C(=O)C=Cc1cc2ccccc2o1` [TCMDC-143354], in assay [1], the “CYP51 pIC50” value is 6.8. Besides, in assay [2], the “Trypomastigotes pIC50 48 hours” value is reported as 4.4 and the “Trypomastigotes pIC50 72 hours” value is recorded as under 4.3.
As to `COc1ccc(-c2nc3ccncc3c(=O)n2CCOc2ccccc2)cc1` [TCMDC-143182], the “CYP51 pIC50” value in assay [1] was 7.4. In assay [2], the “Trypomastigotes pIC50 48 hours” value was under 4.3 and the “Trypomastigotes pIC50 72 hours” value was under 4.3. For the same compound, in assay [2] (figure 1A), the “48 pIC50” value is given as under 4.3 and the “72 pIC50” value is listed as under 4.3. The “72 pIC50” value in assay [2] (figure 1B) is reported as under 4.3.
As for `N#Cc1cc([N+](=O)[O-])ccc1NC1CCCCCC1` [TCMDC-143143], the “CYP51 pIC50” value in assay [1] was under 4. Moreover, in assay [2], the “Trypomastigotes pIC50 48 hours” value was under 4.3 and the “Trypomastigotes pIC50 72 hours” value is on record as under 4.3. In assay [2] (figure 1A), the “48 pIC50” value is given as under 4.3 and the “72 pIC50” value is on record as under 4.3. The “72 pIC50” value in assay [2] (figure 1B) was under 4.3.
On to `O=S(=O)(NCC(c1cccnc1)N1CCN(c2ccccc2F)CC1)c1ccc(F)cc1` (centres unmarked) [TCMDC-143142], for which, in assay [1], the “CYP51 pIC50” value is on record as 7.1. In assay [2], the “Trypomastigotes pIC50 48 hours” value is under 4.3 and the “Trypomastigotes pIC50 72 hours” value is under 4.3. Further, in assay [2] (figure 1A), the “48 pIC50” value is on record as under 4.3 and the “72 pIC50” value was under 4.3. For the same compound, in assay [2] (figure 1B), the “72 pIC50” value is on record as under 4.3.
As for `CN(Cc1ccccc1)Cc1nnnn1C1CCN(Cc2ccc(-n3ccnc3)cc2)CC1` [TCMDC-143322], the “CYP51 pIC50” value in assay [1] is listed as 7.3.
Regarding `O=C(Nc1ccc(C(=O)N2CCCC2c2ccc3c(c2)OCCCO3)cc1)c1ccco1` (centres unmarked) [TCMDC-143198], the “CYP51 pIC50” value in assay [1] is on record as 4.2.
Regarding `CN(Cc1nnnn1C1CCN(Cc2ccc(-n3ccnc3)cc2)CC1)c1ccc(F)cc1F` [TCMDC-143321], the “CYP51 pIC50” value in assay [1] is 6.9.
Regarding `N#Cc1nc(C=Cc2ccccc2)oc1NCc1cccnc1` [TCMDC-143120], in assay [2], the “Trypomastigotes pIC50 48 hours” value is on record as 4.5 and the “Trypomastigotes pIC50 72 hours” value is under 4.3.
